# Target: T1, CB1 receptor (Rattus norvegicus, UniProt P20272)
# T1 construct: gene Cnr1
# Assay: Pink Flamindo cAMP assay in CB1-transfected HEK293 cells, antagonism of 2-AG; also reverses bath-applied 2-AG in autaptic neurons
# Type: cell-based
# T1 sequence (P20272 whole entry): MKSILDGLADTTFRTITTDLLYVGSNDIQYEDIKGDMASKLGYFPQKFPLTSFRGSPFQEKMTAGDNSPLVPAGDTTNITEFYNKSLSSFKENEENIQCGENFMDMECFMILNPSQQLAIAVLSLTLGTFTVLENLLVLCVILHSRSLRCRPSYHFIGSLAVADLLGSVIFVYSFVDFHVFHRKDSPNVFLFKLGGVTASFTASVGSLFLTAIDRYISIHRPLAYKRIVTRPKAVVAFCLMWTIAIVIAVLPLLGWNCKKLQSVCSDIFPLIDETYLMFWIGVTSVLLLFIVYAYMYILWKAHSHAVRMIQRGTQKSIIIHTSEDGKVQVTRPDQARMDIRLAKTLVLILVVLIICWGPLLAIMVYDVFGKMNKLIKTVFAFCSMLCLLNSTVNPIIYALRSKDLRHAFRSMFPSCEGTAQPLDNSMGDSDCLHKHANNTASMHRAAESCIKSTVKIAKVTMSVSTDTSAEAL
smiles,measurement,value
"CCCc1cc(O)c2c(c1)OC(C)(C)[C@@H]1CCC(C)=C[C@@H]21 [THCV, Δ^9-tetrahydrocannabivarin]",IC50,7.3 nM
